Test results published in ChEMBL document CHEMBL4725321, “Study on antitumor activities of the chrysin-chromene-spirooxindole on Lewis lung carcinoma C57BL/6 mice in vivo” (Bioorg Med Chem Lett, 2020).
Active and inactive are the calls of the source. The calls are words filed in the database; no cut-off is given here.

Legend:
Mus musculus [1] = test: Down regulation of VEGF protein expression in mouse LLC allografted C57BL/6 mouse at 100 mg/kg, ip by Western blot analysis; assay type: functional, organism-based
Lewis lung carcinoma [2] = test: Antitumor activity against mouse LLC allografted in C57BL/6 mouse assessed as inhibition of tumor growth at 400 mg/kg, ip measured after 7 days; assay type: functional, organism-based; conditions: time 7.0 day
[3] = Antitumor activity against mouse LLC allografted in C57BL/6 mouse assessed as bax/bcl2 ratio at 200 mg/kg, ip administered once every other day by Western blot analysis; assay type: functional, Lewis lung carcinoma
[4] = Toxicity in C57BL/6 mouse assessed as increase in body weight at 400 mg/kg, ip measured up to 15 days; assay type: organism-based; conditions: in vivo, 360 h, time <=15 day
Lewis lung carcinoma [5] = test: Antitumor activity against mouse LLC allografted in ip dosed C57BL/6 mouse assessed as induction of apoptosis by measuring reduction in number of tumor cells administered every other day by H and E staining based analysis; assay type: functional, organism-based; conditions: dose mg/kg 100-400
[6] = Toxicity in C57BL/6 mouse assessed as increase in body weight at 100 to 200 mg/kg, ip measured up to 15 days; assay type: organism-based; conditions: in vivo, 360 h, dose 100-200 mg/kg, time <=15 day
[7] = Antitumor activity against mouse LLC allografted in C57BL/6 mouse assessed as bax/bcl2 ratio at 400 mg/kg, ip administered once every other day by Western blot analysis; assay type: functional, Lewis lung carcinoma
Lewis lung carcinoma [8] = test: Antitumor activity against mouse LLC allografted in ip dosed C57BL/6 mouse assessed as reduction in bcl2 expression administered once every other day by Western blot analysis; assay type: functional, organism-based; conditions: dose mg/kg 100-400
[9] = Antitumor activity against mouse LLC allografted in C57BL/6 mouse assessed as tumor growth inhibition at 100 mg/kg, ip administered once every other day relative to control; assay type: functional; conditions: Lewis lung carcinoma, read-out: TGI
Lewis lung carcinoma [10] = test: Antitumor activity against mouse LLC allografted in ip dosed C57BL/6 mouse assessed as induction of apoptosis by measuring increase in cell debris content in tumor administered every other day by H and E staining based analysis; assay type: functional, organism-based; conditions: dose mg/kg 100-400
[11] = In vivo activation of p53 in mouse LLC allografted C57BL/6 mouse assessed as reduction in 5-lox protein expression in tumor at 400 mg/kg, ip administered once every other day by Western blot analysis relative to control; assay type: functional
Lewis lung carcinoma [12] = test: Antitumor activity against mouse LLC allografted in ip dosed C57BL/6 mouse assessed as induction of apoptosis by measuring nuclear contraction administered every other day by H and E staining based analysis; assay type: functional, organism-based; conditions: dose mg/kg 100-400
[13] = Antitumor activity against mouse LLC allografted in C57BL/6 mouse assessed as tumor weight at 100 mg/kg, ip administered once every other day (reference value: 2.74 +/- 0.29 g); assay type: functional, Lewis lung carcinoma
Mus musculus [14] = test: Down regulation of MMP2 protein expression in mouse LLC allografted C57BL/6 mouse at 200 mg/kg, ip by Western blot analysis; assay type: functional, organism-based
[15] = Antitumor activity against mouse LLC allografted in C57BL/6 mouse assessed as bax/bcl2 ratio at 100 mg/kg, ip administered once every other day by Western blot analysis; assay type: functional, Lewis lung carcinoma
[16] = Upregulation of p53 protein expression in […] LLC allografted C57BL/6 mouse at 400 mg/kg, ip administered once every other day by Western blot analysis relative to control; assay type: functional
Mus musculus [17] = test: Down regulation of ICAM1 protein expression in mouse LLC allografted C57BL/6 mouse at 100 mg/kg, ip by Western blot analysis; assay type: functional, organism-based
Lewis lung carcinoma [18] = test: Antitumor activity against mouse LLC allografted in C57BL/6 mouse assessed as reduction in tumor weight at 400 mg/kg, ip administered once every other day; assay type: functional, organism-based
Lewis lung carcinoma [19] = test: Antitumor activity against mouse LLC allografted in ip dosed C57BL/6 mouse assessed as reduction in tumor growth administered once every other day; assay type: functional, organism-based; conditions: dose mg/kg 100-400
[20] = Antitumor activity against mouse LLC allografted in C57BL/6 mouse assessed as tumor weight at 400 mg/kg, ip administered once every other day (reference value: 2.74 +/- 0.29 g); assay type: functional, Lewis lung carcinoma
Mus musculus [21] = test: Down regulation of VEGF protein expression in mouse LLC allografted C57BL/6 mouse at 200 to 400 mg/kg, ip by Western blot analysis; assay type: functional, organism-based; conditions: dose mg/kg 200-400
Lewis lung carcinoma [22] = test: Antitumor activity against mouse LLC allografted in C57BL/6 mouse assessed as effect on Cyt C protein expression in tumor at 100 to 200 mg/kg, ip administered once every other day by Western blot analysis; assay type: functional, organism-based; conditions: dose mg/kg 100-200
[23] = biological target: E3 ubiquitin-protein ligase Mdm2 (Mus musculus) (UniProt P23804); test: In vivo activation of p53 in mouse LLC allografted C57BL/6 mouse assessed as reduction in MDM2 protein expression in tumor at 100 to 400 mg/kg, ip administered once every other day by Western blot analysis; assay type: functional, organism-based; conditions: dose mg/kg 100-400
Chain of E3 ubiquitin-protein ligase Mdm2 (Mus musculus) (P23804 whole entry): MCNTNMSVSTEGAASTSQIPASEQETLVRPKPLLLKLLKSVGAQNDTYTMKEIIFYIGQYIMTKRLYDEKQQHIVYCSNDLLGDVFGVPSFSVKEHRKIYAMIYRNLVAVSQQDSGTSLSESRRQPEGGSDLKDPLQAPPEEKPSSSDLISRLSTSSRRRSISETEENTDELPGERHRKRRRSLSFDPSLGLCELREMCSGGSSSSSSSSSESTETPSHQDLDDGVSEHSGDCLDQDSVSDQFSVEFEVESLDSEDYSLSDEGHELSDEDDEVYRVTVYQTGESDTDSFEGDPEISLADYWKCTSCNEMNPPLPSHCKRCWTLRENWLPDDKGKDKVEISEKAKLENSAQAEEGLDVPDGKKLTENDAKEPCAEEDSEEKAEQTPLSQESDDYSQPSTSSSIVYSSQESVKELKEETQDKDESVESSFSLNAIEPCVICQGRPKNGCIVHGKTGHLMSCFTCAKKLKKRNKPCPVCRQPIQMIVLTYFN

Lewis lung carcinoma [24] = test: Antitumor activity against mouse LLC allografted in ip dosed C57BL/6 mouse assessed as induction of apoptosis by measuring increase in apoptotic bodies in tumor administered every other day by H and E staining based analysis; assay type: functional, organism-based; conditions: dose mg/kg 100-400
Lewis lung carcinoma [25] = test: Antitumor activity against mouse LLC allografted in ip dosed C57BL/6 mouse assessed as increase in bax expression administered once every other day by Western blot analysis; assay type: functional, organism-based; conditions: dose mg/kg 100-400
Lewis lung carcinoma [26] = test: Antitumor activity against mouse LLC allografted in C57BL/6 mouse assessed as Cyt C protein expression level in tumor at 400 mg/kg, ip administered once every other day by Western blot analysis relative to control; assay type: functional, organism-based
Lewis lung carcinoma [27] = test: Antitumor activity against mouse LLC allografted in ip dosed C57BL/6 mouse assessed as reduction in tumor volume measured after 7 days; assay type: functional, organism-based; conditions: dose mg/kg 100-400, time 7.0 day
[28] = Antitumor activity against mouse LLC allografted in C57BL/6 mouse assessed as tumor growth inhibition at 400 mg/kg, ip administered once every other day relative to control; assay type: functional; conditions: Lewis lung carcinoma, read-out: TGI
[29] = Antitumor activity against mouse LLC allografted in C57BL/6 mouse assessed as tumor growth inhibition at 200 mg/kg, ip administered once every other day relative to control; assay type: functional; conditions: Lewis lung carcinoma, read-out: TGI
[30] = In vivo activation of p53 in mouse LLC allografted C57BL/6 mouse assessed as reduction in Akt protein expression in tumor at 200 mg/kg, ip administered once every other day by Western blot analysis relative to control; assay type: functional
[31] = Toxicity in C57BL/6 mouse assessed as effect on body weight at 100 to 400 mg/kg, ip measured on day 3; assay type: organism-based; conditions: in vivo, 72 h, dose 100-400 mg/kg, time 3 day
[32] = Antitumor activity against mouse LLC allografted in C57BL/6 mouse assessed as tumor weight at 200 mg/kg, ip administered once every other day (reference value: 2.74 +/- 0.29 g); assay type: functional, Lewis lung carcinoma

With `CN1C(=O)C2(C(C#N)=C(N)Oc3cc4oc(-c5ccccc5)cc(=O)c4c(O)c32)c2cc(Br)ccc21` (configuration not stated) the Activity (Mus musculus [1]) was “inactive”, the TGI (Lewis lung carcinoma [2]) was “Active” and the Ratio [3] was 2.23. For the same molecule, the Activity [4] was “Non-Toxic”, the Activity (Lewis lung carcinoma [5]) was “Dose-dependent effect” and the Activity [6] was “Toxic”. For the same molecule, the Ratio [7] was 4.13, the Activity (Lewis lung carcinoma [8]) was “Dose-dependent effect” and the inhibition in vivo at 100 mg/kg [9] was 7.45%. The Activity (Lewis lung carcinoma [10]) was “Dose-dependent effect”, the “fold change (FC)” value [11] was 0.4 and the Activity (Lewis lung carcinoma [12]) was “Dose-dependent effect”. For the same molecule, the Activity [13] was 2.51 g, the Activity (Mus musculus [14]) was “Active” and the Ratio [15] was 1.29. For the same molecule, the “fold change (FC)” value [16] was 2.86, the Activity (Mus musculus [17]) was “Active” and the Activity (Lewis lung carcinoma [18]) was “Active”. The Activity (Lewis lung carcinoma [19]) was “Dose-dependent effect”, the Activity [20] was 1.18 g and the Activity (Mus musculus [21]) was “Active”. The Activity (Lewis lung carcinoma [22]) was “inactive”, the Activity [23] was “Active” and the Activity (Lewis lung carcinoma [24]) was “Dose-dependent effect”. The Activity (Lewis lung carcinoma [25]) was “Dose-dependent effect”, the Activity (Lewis lung carcinoma [26]) was “Active” and the Activity (Lewis lung carcinoma [27]) was “Dose-dependent effect”. For the same molecule, the inhibition in vivo at 400 mg/kg [28] was 56.9%, the inhibition in vivo at 200 mg/kg [29] was 20% and the “fold change (FC)” value [30] was 0.59. For the same molecule, the Activity [31] was “Non-Toxic” and the Activity [32] was 2.15 g.
